Here are results for 21 molecules from US7563787B2, “Substituted pyrazole compounds” (Miikana Therapeutics, Inc., priority 2005, dated 2009).

One assay has as its target T1, recombinant Aurora A (Homo sapiens, UniProt O14965).
T1 construct: purchased Upstate, Lake Placid, N.Y
T1 sequence (O14965 1-403): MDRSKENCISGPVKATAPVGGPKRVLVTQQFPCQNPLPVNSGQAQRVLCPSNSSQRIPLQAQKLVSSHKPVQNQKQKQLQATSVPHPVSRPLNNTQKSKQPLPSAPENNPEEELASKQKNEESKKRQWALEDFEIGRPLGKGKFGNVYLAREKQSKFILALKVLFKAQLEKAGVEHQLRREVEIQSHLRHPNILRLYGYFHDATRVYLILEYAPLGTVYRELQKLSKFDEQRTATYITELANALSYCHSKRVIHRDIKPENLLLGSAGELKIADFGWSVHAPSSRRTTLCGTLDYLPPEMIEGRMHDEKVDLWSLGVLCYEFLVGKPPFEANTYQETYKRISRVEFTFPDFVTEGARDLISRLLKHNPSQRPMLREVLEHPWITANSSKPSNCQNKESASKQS
The experiment in a line: Aurora A (Aurora 2) Inhibition Assay (Z'-Lyte). The class given is biochemical. The note with it: 100 μM compound; ATP 10 μM; 1 h. As to the method:
Compounds were tested for their potency against recombinant Aurora A (Upstate, Lake Placid, N.Y.) using the PanVera Z'-Lyte kinase assay kit-Ser/[…] peptide (Invitrogen, Carlsbad, Calif.). […] Assays were carried out in half-area 96-well white polystyrene assay plates (Corning, Corning, N.Y.) in a final volume of 20 μl. The reaction was allowed to proceed for 1 h at room temperature in the dark, at which point the development reagent and stop reagent were added according to the manufacturer's instructions. Coumarin (Ex. 400 nm, Em. 465 nm) and fluorescein (Ex. 400 nm, Em. 565 nm) fluorescence values were measured on a SpectraFluor Plus plate reader (Tecan, Durham, N.C.). The emission ratio (coumarin/fluorescein) was determined and used to calculate the percent phosphorylation for each well. […] Typically 20-40% of the substrate was phosphorylated in wells without inhibitor. Dose-response curves of relative Aurora A activity vs. inhibitor concentration were plotted with Grafit (Erithacus Software, Horley, Surrey, UK).

A further assay has as its target T2, Aurora B kinase (Homo sapiens, UniProt Q96GD4).
T2 construct: purchased BPS Biosciences, San Diego, Calif
The assay can be described thus: Aurora B (Aurora 1) Inhibition Assay. The class given is biochemical. The note with it: 100 μM compound; ATP 50 μM; 16 h. How it is done: Assays for Aurora B kinase inhibition were carried out similarly to those for Aurora A kinase (see above) with the following modifications. Aurora B kinase (BPS Biosciences, San Diego, Calif.) was used as the enzyme, at a concentration was 2.5 μg/mL. The ATP concentration was 50 μM, and the kinase reaction was allowed to proceed for 16 h. Sodium orthovanadate (20 μM) was added to the buffer to inhibit contaminating phosphatases.

The next assay has as its system HCT-116 cell growth. The assay can be described thus: Whole Cell Cytotoxicity Assay: Sulforhodamine B. In kind it is cell-based, Human. The note with it: 100 μM compound, 96 hours, SRB staining; for inhibition at 100 µM: Homo sapiens, HCT-116. How it is done:
Human tumor-derived cell lines, HCT116 or MCF7 (ATCC) were plated in a 96 well plate in DMEM containing 10% fetal bovine serum and 2 mM L-glutamine at a density of 500 HCT116 cells or 1,000 MCF7 cells per well and incubated at 37° C., 5% CO2, for 24 hours prior to the addition of experimental compounds. Compounds were added using the dilution series indicated to duplicate plates and the cells were incubated in media plus compound for 96 hours. An additional plate was fixed in 10% TCA at the time of the addition of compound to provide a measurement of the cell population at time zero, the time of drug addition. Following the 96 hour incubation, cells were fixed in situ by gently aspirating off the culture media and then adding 50 ul of ice cold 10% TCA per well and incubation at 4° C. for 60 minutes. The plates were washed with tap water five times and allowed to air dry for 5 minute. 50 ul of a 0.4% (w/v) Sulforhodamine B solution in 1% (v/v) acetic acid was added per well and the cells were incubated for 30 minutes at room temperature. Following staining, plates were washed four times with 1% acetic acid to remove any unbound dye and then allowed to air dry for 5 minutes. The stain was solubilized with 100 ul of 10 mM Tris pH 10.5 per well and placed on an orbital rotator for 5 minutes. The absorbance was read at 570 nm. Percentage growth was calculated using the absorbance readings from the time zero plate (Tz) and the dilution series plate […] which included a column of cells grown in media without compound as a control (C) using the formulas: [(Ti−Tz)/(C−Tz)]×100 for concentrations for which Ti>/=Tz [(Ti−Tz)/Tz]×100 for concentrations for which Ti<Tz.
Three dose response parameters were calculated for each experimental agent. Growth inhibition of 50% (GI50) was calculated from [(Ti−Tz)/(C−Tz)]×100=50, which was the drug concentration resulting in a 50% reduction in the net protein increase (as measured by SRB staining) in control cells during the drug incubation. The drug concentration resulting in total growth inhibition (TGI) was calculated from Ti=Tz. The LC50 (concentration of drug resulting in a 50% reduction in the measured protein at the end of the drug treatment as compared to that at the beginning) indicating a net loss of cells following treatment was calculated from [(Ti−Tz)/Tz]×100=−50. Values are calculated for each of these three parameters if the level of activity was reached; however, if the effect was not reached or was exceeded, the value for that parameter is expressed as greater or less than the maximum or minimum concentration tested.
(Sulforhodamine B stains cellular protein and so reports cell mass.)

T2 sequence (Q96GD4 whole entry): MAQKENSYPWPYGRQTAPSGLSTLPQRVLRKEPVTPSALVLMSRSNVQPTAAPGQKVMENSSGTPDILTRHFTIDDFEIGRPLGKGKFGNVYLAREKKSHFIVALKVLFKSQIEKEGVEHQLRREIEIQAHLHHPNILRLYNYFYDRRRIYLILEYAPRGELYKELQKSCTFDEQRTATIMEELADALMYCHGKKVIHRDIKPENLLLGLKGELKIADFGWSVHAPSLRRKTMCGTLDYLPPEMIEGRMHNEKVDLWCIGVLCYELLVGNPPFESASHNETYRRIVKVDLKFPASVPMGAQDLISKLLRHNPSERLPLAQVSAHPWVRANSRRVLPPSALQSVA

The inhibition is the share of the control response that was lost under treatment. As to `Cc1cc(Nc2cc(N3CCN(C)CC3)nc(/C=C\c3ccccc3)n2)n[nH]1` [Example 32, 6-(4-methylpiperazin-1-yl)-N-(3-methyl-1H-pyrazol-5-yl)-2-[(Z)-2-phenylvinyl]pyrimidin-4-amine], the inhibition at 100 µM worked out at 100% on recombinant Aurora A, 99% at Aurora B kinase and 87% in the assay with HCT-116 cell growth.

As for `Cc1cc(Nc2cc(NCC3CCCO3)nc(/C=C/c3ccccc3)n2)n[nH]1` (centres unmarked) [Example 164, N^4-((tetrahydrofuran-2-yl)methyl)-N^6-(5-methyl-1H-pyrazol-3-yl)-2-styrylpyrimidine-4,6-diamine], the inhibition at 100 µM was 100% on recombinant Aurora A, 100% at Aurora B kinase and 96% with HCT-116 cell growth.

On to `Cc1cc(Nc2cc(OC3CCNCC3)nc(/C=C/c3ccccc3)n2)n[nH]1` [Example 100], for which the values for the inhibition at 100 µM at recombinant Aurora A, against Aurora B kinase and in the assay with HCT-116 cell growth were 100%, 100% and 96%, respectively.

Take `CCOC(=O)c1nc(/C=C/c2ccccc2)nc(Nc2cc(C)n[nH]2)c1N` [Example 18, ethyl 5-amino-6-[(3-methyl-1H-pyrazol-5-yl)amino]-2-[(E)-2-phenylvinyl]pyrimidine-4-carboxylate]: the inhibition at 100 µM at recombinant Aurora A is 100%; against Aurora B kinase, 100%; in the assay on HCT-116 cell growth, 80%.

`COCCNc1cc(Nc2cc(C)[nH]n2)nc(/C=C/c2ccccc2)n1` [Example 163, N^4-(2-methoxyethyl)-N^6-(5methyl-1H-pyrazol-3-yl)-2-styrylpyrimidine-4,6-diamine]: the inhibition at 100 µM on recombinant Aurora A stood at 100%; on Aurora B kinase it was 100%; in the assay on HCT-116 cell growth, 98%.

As for `COc1cc(/C=C/c2nc(Nc3cc(C)[nH]n3)cc(N3CCN(C)CC3)n2)cc(OC)c1` [Example 50, 2-(3,5-dimethoxystyryl)-N-(5-methyl-1H-pyrazol-3-yl)-6-(4-methylpiperazin-1-yl)pyrimidin-4-amine], the inhibition at 100 µM on recombinant Aurora A turned out to be 100%; in the assay on HCT-116 cell growth it was 98%.

As to `Cc1cc(Nc2cc(N3CCN(S(C)(=O)=O)CC3)nc(/C=C/c3ccccc3)n2)n[nH]1` [Example 71, N-(5-methyl-1H-pyrazol-3-yl)-6-(4-methylsulfonylpiperazin-1-yl)-2-styrylpyrimidin-4-amine], the inhibition at 100 µM at recombinant Aurora A turned out to be 100%; in the assay with HCT-116 cell growth it was 98%.

Take `Cc1cc(Nc2cc(N3CCSCC3)nc(/C=C/c3ccccc3)n2)n[nH]1` [Example 83, N-(5methyl-1H-pyrazol-3-yl)-2-styryl-6thiomorpholinopyrimidin-4-amine]: the inhibition at 100 µM on recombinant Aurora A came to 100%; in the assay on HCT-116 cell growth, 98%.

As to `Cc1cc(Nc2nc(/C=C/c3ccc(Cl)cc3)nc(N3CCN(C)CC3)c2N)n[nH]1` [Example 172], the inhibition at 100 µM on recombinant Aurora A and with HCT-116 cell growth was 99% throughout.

As to `Cc1cc(Nc2nc(/C=C/c3ccccc3)nc(N3CCN(C)CC3)c2[N+](=O)[O-])[nH]n1` [Example 4, 6-(4-methylpiperazin-1-yl)-N-(3-methyl-1H-pyrazol-5-yl)-5-nitro-2-[(E)-2-phenylvinyl]pyrimidin-4-amine], the inhibition at 100 µM was determined as 91% at recombinant Aurora A and 87% in the assay with HCT-116 cell growth.

Turning to `CCOC(=O)c1nc(/C=C/c2ccccc2)nc(Nc2cc(C)n[nH]2)c1[N+](=O)[O-]` [Example 17, ethyl 6-[(3-methyl-1H-pyrazol-5-yl)amino]-5-nitro-2-[(E)-2-phenylvinyl]pyrimidine-4-carboxylate], the inhibition at 100 µM at recombinant Aurora A is 62%; in the assay on HCT-116 cell growth, 93%.

As to `COC(=O)c1ccc(/C=C/c2nc(Nc3cc(C)[nH]n3)c(N)c(N3CCN(C)CC3)n2)cc1` [Example 39, methyl 4-((E)-2-{5-amino-4-(4-methylpiperazin-1-yl)-6-[(3-methyl-1H-pyrazol-5-yl)amino]-pyrimidin-2-yl}vinyl)benzoate], the inhibition at 100 µM on recombinant Aurora A is 100%; with HCT-116 cell growth it was 97%.

In the case of `CCOC(=O)c1nc(/C=C/c2cccc(F)c2)nc(Nc2cc(C)n[nH]2)c1N` [Example 22, ethyl 5-amino-2-[(E)-2-(3-fluorophenyl)vinyl]-6-[(3-methyl-1H-pyrazol-5-yl)amino]pyrimidine-4-carboxylate], the inhibition at 100 µM at recombinant Aurora A amounted to 97%; in the assay with HCT-116 cell growth it was 85%.

Regarding `Cc1cc(Nc2nc(/C=C/c3ccccc3)nc(N3CCCC3)c2N)[nH]n1` [Example 15, N-(3-methyl-1H-pyrazol-5-yl)-6-(pyrrolidin-1-yl)-2-[(E)-2-phenylvinyl]pyrimidin-4,5-diamine], the inhibition at 100 µM is 100% on recombinant Aurora A and 91% in the assay with HCT-116 cell growth.

On to `Cc1cc(Nc2nc(/C=C/c3ccccc3)nc(Nc3cc(C)n[nH]3)c2N)[nH]n1` [Example 11], for which the inhibition at 100 µM was 98% at recombinant Aurora A and 99% in the assay on HCT-116 cell growth.

As to `Cc1cc(Nc2cc(Nc3ccccc3)nc(/C=C/c3ccccc3)n2)n[nH]1` [Example 82, N^4-(5-methyl-1H-pyrazol-3-yl)-N^6-phenyl-2-styrylpyrimidine-4,6-diamine], the figures for the inhibition at 100 µM on recombinant Aurora A and in the assay with HCT-116 cell growth were 100% and 98%, respectively.

Turning to `Cc1ccc(/C=C/c2nc(Nc3cc(C)[nH]n3)c(N)c(N3CCN(C)CC3)n2)cc1` [Example 170], the inhibition at 100 µM amounted to 100% at recombinant Aurora A and 99% in the assay on HCT-116 cell growth.

For “2-(4-methoxystyryl)-N-(5-methyl-1H-pyrazol-3-yl)-6-(4-methylpiperazin-1-yl)pyrimidin-4-amine [Example 161]”, the “% Inhibition of Aurora A @ 100 μM” value on recombinant Aurora A turned out to be 100%. For the same molecule, the “% Inhibition of HCT-116 cell growth @ 100 μM” value in the assay on HCT-116 cell growth came out at 93%.

In the case of `Cc1cc(Nc2cc(N3CCCCC3)nc(/C=C/c3ccccc3)n2)n[nH]1` [Example 67, N-(5-methyl-1H-pyrazol-3-yl)-6-(piperidin-1-yl)-2-styrylpyrimidin-4-amine], the inhibition at 100 µM was 100% on recombinant Aurora A and 98% in the assay with HCT-116 cell growth.

Turning to `Cc1cc(Nc2cc(N3CCN(C)CC3)nc(/C=C/c3ccc(Br)cc3)n2)n[nH]1` [Example 103, 2-(4-bromostyryl)-N-(5-methyl-1H-pyrazol-3-yl)-6-(4-methylpiperazin-1-yl)pyrimidin-4-amine], the inhibition at 100 µM on recombinant Aurora A is 100%; with HCT-116 cell growth, 84%.

As to `Cc1cc(Nc2cc(N3CCN(C)CC3)nc(/C=C/c3ccc(Cl)cc3)n2)n[nH]1` [Example 49, 2-(4-chlorostyryl)-N-(5methyl-1H-pyrazol-3-yl)-6-(4-methylpiperazin-1-yl)pyrimidin-4-amine], the inhibition at 100 µM came out at 100% on recombinant Aurora A and 75% in the assay with HCT-116 cell growth.
